Experimental data published in patent publication US11873306B1, “Nano-sized 5,10,15,20-tetrakis (4-hydroxyphenyl)-porphyrins pd(II) complex for super medicinal applications” (KING FAISAL UNIVERSITY, priority 2023, dated 2024).
≈ marks a conversion by molar mass, not a printed value. Where two headings read alike, the source gives them in different places.

Key:
E. coli = test: Antimicrobial activity, E. coli (inhibition zone and MIC); type: cell-based; details: E. coli bacteria
Microccus luteus = test: Antimicrobial activity, Microccus luteus (inhibition zone and MIC); type: cell-based
Aspergillus flavus = test: Antifungal activity, Aspergillus flavus (inhibition zone and MIC); type: cell-based; details: Aspergillus flavus fungi
breast cancer cell line [1] = test: Anti-cancer activity, breast cancer cell line; type: cell-based, human
[2] = system: Colon carcinoma cells (HCT-116 cell line); test: Anti-cancer activity, colon carcinoma cells; type: cell-based
breast cancer cell line [3] = test: Antioxidant activity; type: cell-based; details: against a breast cancer cell line
[4] = Homo sapiens, read-out: IC50 (anticancer activity)

5,10,15,20-Tetrakis (4-hydroxyphenyl)-Porphyrins Pd(II) complex [prepared complex]
MIC (E. coli): 1.5 µg/mL
inhibition zone (E. coli; listed as prepared nano complex): 33 mm
inhibition zone (E. coli; listed as present complex): about 33 mm
MIC (Microccus luteus): 0.75 µg/mL
inhibition zone (Microccus luteus): 41.5 mm
inhibition zone (Microccus luteus; listed as present complex): about 41.5 mm
MIC (Aspergillus flavus): 1.75 µg/mL
inhibition zone (Aspergillus flavus): 23.25 mm
inhibition zone (Aspergillus flavus; listed as present complex): about 23.25 mm
IC50 (anticancer activity) (breast cancer cell line [1]): 4.5 µg/mL
IC50 (anticancer activity) [2]: 4.9 µg/mL
IC50 (antioxidant activity) (breast cancer cell line [3]): 10.5 µg/mL

O=C1O[C@H]([C@@H](O)CO)C(O)=C1O [1-ascorbic acid, reference compound]
IC50 (antioxidant activity) (breast cancer cell line [3]): 55.2 µg/mL (≈ 313 µM)

OC(Cn1cncn1)(Cn1cncn1)c1ccc(F)cc1F [Fluconazol, reference compound]
inhibition zone (Aspergillus flavus): 22.00 mm
MIC (Aspergillus flavus; read-out: MIC): 2.5 µg/mL (≈ 8.16 µM)

CC1COc2c(N3CCN(C)CC3)c(F)cc3c(=O)c(C(=O)O)cn1c23 (stereo not drawn) [Ofloxacin, reference compound]
inhibition zone (E. coli): 30 mm
MIC (E. coli; Escherichia coli, read-out: MIC): 2.25 µg/mL (≈ 6.23 µM)
inhibition zone (Microccus luteus): 39.75 mm
MIC (Microccus luteus; read-out: MIC): 1.25 µg/mL (≈ 3.46 µM)

CC[C@]1(O)C[C@@H]2CN(CCc3c([nH]c4ccccc34)[C@@](C(=O)OC)(c3cc4c(cc3OC)N(C)[C@H]3[C@@](O)(C(=O)OC)[C@H](OC(C)=O)[C@]5(CC)C=CCN6CC[C@]43[C@@H]65)C2)C1 [vinblastine, reference compound]
IC50 (breast cancer cell line [1]; [4]): 5.2 µg/mL (≈ 6.41 µM)
IC50 [2, 4]: 5.41 µg/mL (≈ 6.67 µM)
